Assay type in all cases: in vivo
Holding throughout (conditions): mice

Assay [1] deals with P388 leukemia. The experiment in a line: Antitumor effect against P388 leukemia, QD 1→3 ip. As to the method:
(§1) Antitumor activity of representative compounds of the present invention was determined using in vivo murine transplantable P388 leukemia and B16 melanoma models.
(§2) P388 leukemia: female CDF1 and male BDF1 mice were inoculated by intraperitoneal injection of 0.8 ml diluted ascitic fluid containing 10^6 cells.
(§3) Test materials were dissolved in 0.9% saline containing 10% dimethyl sulfoxide and graded doses of them were administered to mice intraperitoneally 24 hrs after tumor implantation. Two dosing schedules were used for the P388 leukemia experiment: once daily on day 1 through day 3 (QD 1→3); and once daily on day 1 through day 9(QD 1→9). The QD 1→9 schedule was used for the B16 melanoma experiment.
(§4) Antitumor activity is evaluated as the increase in median survival time (MST) of treated (T) and control (C) animals for various dosage regimens expressed as a percentage ratio (T/C %=MST of treated.div.MST of control×100). For both in vivo P388 leukemia and in vivo B16 melanoma models, values for percentage ratios of 125 and above indicate significant antitumor effect.

In assay [2] the test system is P388 leukemia. The experiment in a line: Antitumor effect against P388 leukemia, QD 1→9 ip. As to the method:
as §1, §2, §3, §4

The next assay relates to B16 melanoma. The experiment in a line: Antitumor effect against B16 melanoma, QD 1→9 ip. Here is the method: as §1
B16 melanoma: male BDF1 mice were implanted with 0.5 ml of a 10% tumor brei intraperitoneally.
as §3, §4

`CCCCCCCCCCCCCCCC(=O)NC(C(=O)NC1CC(O)CCNC(=O)C=CC(C)NC1=O)C(C)O` [Example 10, Palmitoyl-L-Threonyl-II]: the figures for the “MST (% T/C)” value in the assay on P388 leukemia [1] (1 mg/kg/day), in the assay on P388 leukemia [1] (3 mg/kg/day) and in the assay on P388 leukemia [1] (10 mg/kg/day) were 114 % T/C, 119 % T/C and 138 % T/C, respectively.
Take `CCCCCCCCCC=CC=CC(=O)NC(C(=O)NC1CC(O)CCNC(=O)C=CC(C)NC1=O)C(C)O` (centres unmarked) [BU-2867T C]: the “MST (% T/C)” value in the assay on P388 leukemia [1] (10 mg/kg/day) is listed as 57 % T/C; in the assay on P388 leukemia [2] (0.13 mg/kg/day), 130 % T/C; in the assay on P388 leukemia [2] (0.25 mg/kg/day), 160 % T/C; in the assay on P388 leukemia [2] (1 mg/kg/day), 170 % T/C; in the assay on P388 leukemia [2] (4 mg/kg/day), 65 % T/C; in the assay with B16 melanoma (4 mg/kg/day), “Tox”.
Consider `CCCCCCCCCC(=O)N[C@H](C(=O)NC1CC(O)CCNC(=O)/C=C/C(C)NC1=O)[C@@H](C)O` (some centres unmarked) [Example 2, n-Decanoyl-III], for which, in the assay on P388 leukemia [1] (10 mg/kg/day), the “MST (% T/C)” value came out at 64 % T/C.
On to `CCCCCCCCCCCCCC(=O)N[C@H](C(=O)NC1CC(O)CCNC(=O)/C=C/C(C)NC1=O)[C@@H](C)O` (some centres unmarked) [Example 3, n-Tetradecanoyl-III], for which the “MST (% T/C)” value in the assay with P388 leukemia [1] (10 mg/kg/day) is listed as 55 % T/C; with P388 leukemia [2] (1 mg/kg/day), 150 % T/C; with P388 leukemia [2] (2 mg/kg/day), 150 % T/C.
`CCCCCCCCOc1ccc(C(=O)N[C@H](C(=O)NC2CC(O)CCNC(=O)/C=C/C(C)NC2=O)[C@@H](C)O)cc1` (some centres unmarked) [Example 6, p-n-Octyloxybenzoyl-III]: the “MST (% T/C)” value in the assay on P388 leukemia [1] (1 mg/kg/day) is 150 % T/C; in the assay with P388 leukemia [1] (3 mg/kg/day), “Tox”; in the assay on P388 leukemia [2] (0.13 mg/kg/day), 140 % T/C; with P388 leukemia [2] (0.25 mg/kg/day) it was 150 % T/C; in the assay with P388 leukemia [2] (0.63 mg/kg/day), 120 % T/C; in the assay with P388 leukemia [2] (1 mg/kg/day), “Tox”.
In the case of `CCCCCCCCCCCC(=O)N[C@H](C(=O)NC1CC(O)CCNC(=O)/C=C/C(C)NC1=O)[C@@H](C)O` (some centres unmarked) [Example 1, n-Dodecanoyl-III], the “MST (% T/C)” value in the assay on P388 leukemia [1] (1 mg/kg/day) came to 130 % T/C; in the assay on P388 leukemia [2] (1 mg/kg/day) it was 150 % T/C.
For `CCCCCC=CCCC=CC=CC(=O)NC(C(=O)NC1CC(O)CCNC(=O)C=CC(C)NC1=O)C(C)O` (centres unmarked) [BU-2867T B], the “MST (% T/C)” value with P388 leukemia [2] (0.25 mg/kg/day) is reported as 130 % T/C; in the assay with P388 leukemia [2] (0.63 mg/kg/day), 130 % T/C; with P388 leukemia [2] (1 mg/kg/day), 170 % T/C; with P388 leukemia [2] (2 mg/kg/day), 180 % T/C; in the assay with P388 leukemia [2] (4 mg/kg/day), “Tox”; in the assay on B16 melanoma (2 mg/kg/day) it was “Tox”.
For the compound `CCCCCCC/C=C/C=C/C(=O)N[C@H](C(=O)N[C@H]1C[C@@H](O)CCNC(=O)/C=C/[C@H](C)NC1=O)[C@@H](C)O` [BU-2867T A], the “MST (% T/C)” value with P388 leukemia [1] (1 mg/kg/day) is 145 % T/C; in the assay on P388 leukemia [1] (3 mg/kg/day), “Tox”; in the assay on P388 leukemia [1] (.3 mg/kg/day), 130 % T/C; in the assay on P388 leukemia [2] (0.13 mg/kg/day), 130 % T/C; with P388 leukemia [2] (0.25 mg/kg/day), 150 % T/C; in the assay with P388 leukemia [2] (0.5 mg/kg/day), 155 % T/C. Also, the “MST (% T/C)” value with P388 leukemia [2] (0.63 mg/kg/day) is 110 % T/C; in the assay on P388 leukemia [2] (1 mg/kg/day), 190 % T/C; with P388 leukemia [2] (2 mg/kg/day), “Tox”; with B16 melanoma (1 mg/kg/day), 116 % T/C; with B16 melanoma (2 mg/kg/day) it was “Tox”; in the assay with B16 melanoma (.13 mg/kg/day), 97 % T/C. The “MST (% T/C)” value in the assay with B16 melanoma (.25 mg/kg/day) is 100 % T/C; in the assay on B16 melanoma (.5 mg/kg/day) it was 113 % T/C.

(Values after patent US4789731A, “Semi-synthetic peptide antibiotics” (Bristol-Myers Company, priority 1987, dated 1988).)
